The target in the test is T1, acyl coenzyme-A:cholesterol-O-acyl transferase (ACAT; EC 2.3.1.26) (Rattus norvegicus, UniProt Q7TQM4).
T1 construct: microsomes obtained from the livers of rats; from tissue; host or cells: liver microsomes of rats fed 0.5% w/w cholesterol and 0.25% w/w cholic acid
T1 sequence (Q7TQM4 1-524): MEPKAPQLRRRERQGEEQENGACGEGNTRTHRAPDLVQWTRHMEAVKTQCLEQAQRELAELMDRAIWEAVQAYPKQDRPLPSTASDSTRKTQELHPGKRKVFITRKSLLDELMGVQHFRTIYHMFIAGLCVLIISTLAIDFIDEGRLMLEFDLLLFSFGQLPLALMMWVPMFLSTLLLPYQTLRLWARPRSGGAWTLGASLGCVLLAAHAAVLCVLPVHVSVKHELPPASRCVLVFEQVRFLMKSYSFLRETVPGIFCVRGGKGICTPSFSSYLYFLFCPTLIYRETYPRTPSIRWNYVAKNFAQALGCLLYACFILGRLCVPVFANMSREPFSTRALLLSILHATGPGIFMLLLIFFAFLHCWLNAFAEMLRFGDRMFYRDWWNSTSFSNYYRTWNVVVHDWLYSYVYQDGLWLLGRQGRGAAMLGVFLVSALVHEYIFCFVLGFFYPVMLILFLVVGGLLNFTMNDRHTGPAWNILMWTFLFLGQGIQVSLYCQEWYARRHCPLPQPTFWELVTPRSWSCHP
Description: In vitro inhibition of acyl coenzyme-A:cholesterol-O-acyl transferase (ACAT) in liver microsomes of cholesterol/cholic acid-fed rats. The conditions noted are these: microsomes from livers of rats fed a diet containing 0.5% w/w cholesterol and 0.25% w/w cholic acid. The test is classed as biochemical. For orientation: Liver microsomes are a subcellular fraction often used to study metabolism.

As to `CO[C@@H]1C[C@H](O)C[C@@H](CSc2nc(-c3ccccc3)c(-c3ccccc3)[nH]2)O1` [(I), (2S,4R,6S)-6-[(4,5-diphenylimidazol-2-yl)thiomethyl]-4-hydroxy-2-methoxy-3,4,5,6-tetrahydro-2H-pyran], it took 50 nM to reach half-maximal inhibition (IC50). That is a double-digit nanomolar value.
Consider `CO[C@H]1C[C@H](O)C[C@@H](CSc2nc(-c3ccccc3)c(-c3ccccc3)[nH]2)O1` [(II), (2R,4R,6S)-6-[(4,5-diphenylimidazol-2-yl)thiomethyl]-4-hydroxy-2-methoxy-3,4,5,6-tetrahydro-2H-pyran], for which half-maximal inhibition (IC50) was put at 91 nM.

The values are drawn from patent US5006546A, “Imidazole derivatives” (Rhone-Poulenc Sante, priority 1989, dated 1991).
